From ChEMBL document CHEMBL5584362, “Sucurchalasins A and B, Sulfur-Containing Heterodimers of a Cytochalasan and a Macrolide from the Endophytic Fungus Aspergillus spelaeus GDGJ-286” (J Nat Prod, 2024)
≈ marks a conversion by molar mass, not a printed value. Calls of active or inactive are those of the source. The calls are words filed in the database; no cut-off is given here.

Key:
HeLa = assay: Cytotoxicity against human HeLa cells by MTT assay; format: functional, cell-based
Vibrio parahaemolyticus [1] = assay: Antibacterial activity against Vibrio parahaemolyticus measured after 20 to 45 mins by broth microdilution method; format: functional; settings: time 20-45 min
Shigella dysenteriae = assay: Antibacterial activity against Shigella dysenteriae measured after 20 to 45 mins by broth microdilution method; format: functional; settings: time 20-45 min
SK-OV-3 = assay: Cytotoxicity against human SK-OV-3 cells by MTT assay; format: functional, cell-based
Escherichia coli [2] = assay: Antibacterial activity against Escherichia coli measured after 20 to 45 mins by broth microdilution method; format: functional; settings: time 20-45 min
Staphylococcus aureus [3] = assay: Antibacterial activity against Staphylococcus aureus measured after 20 to 45 mins by broth microdilution method; format: functional; settings: time 20-45 min
Bacillus subtilis = assay: Antibacterial activity against Bacillus subtilis measured after 20 to 45 mins by broth microdilution method; format: functional; settings: time 20-45 min
Salmonella typhi [4] = assay: Antibacterial activity against Salmonella typhi measured after 20 to 45 mins by broth microdilution method; format: functional, Salmonella enterica subsp. enterica serovar Typhi; settings: Salmonella enterica; time 20-45 min
Enterococcus faecalis = assay: Antibacterial activity against Enterococcus faecalis measured after 20 to 45 mins by broth microdilution method; format: functional; settings: time 20-45 min
A2780 [5] = assay: Cytotoxicity against human A2780 cells by MTT assay; format: functional, cell-based
HepG2 = assay: Cytotoxicity against human HepG2 cells by MTT assay; format: functional, cell-based
A2780 [6] = assay: Induction of apoptosis in human A2780 cells assessed as increase in early apoptotic cells measured after 48 hrs by Annexin V-FITC/PI staining based FACS analysis; format: functional, cell-based; settings: dose 1-9 µM
A2780 [7] = assay: Induction of apoptosis in human A2780 cells assessed as early apoptotic cells at 9 uM measured after 48 hrs by Annexin V-FITC/PI staining based FACS analysis (reference value: 1.68 to 1.9%); format: functional
A2780 [8] = assay: Induction of apoptosis in human A2780 cells assessed as early apoptotic cells at 3 uM measured after 48 hrs by Annexin V-FITC/PI staining based FACS analysis (reference value: 1.68 to 1.9%); format: functional
A2780 [9] = assay: Induction of apoptosis in human A2780 cells assessed as late apoptotic cells at 1 uM measured after 48 hrs by Annexin V-FITC/PI staining based FACS analysis (reference value: 2.32 to 2.4%); format: functional
A2780 [10] = assay: Induction of apoptosis in human A2780 cells assessed as necrotic cells at 1 uM measured after 48 hrs by Annexin V-FITC/PI staining based FACS analysis (reference value: 1.34 to 3.3%); format: functional
A2780 [11] = assay: Induction of apoptosis in human A2780 cells assessed as early apoptotic cells at 1 uM measured after 48 hrs by Annexin V-FITC/PI staining based FACS analysis (reference value: 1.68 to 1.9%); format: functional
A2780 [12] = assay: Induction of apoptosis in human A2780 cells assessed as viable cells at 1 uM measured after 48 hrs by Annexin V-FITC/PI staining based FACS analysis (reference value: 92.6 to 92.8%); format: functional; settings: read-out: Activity
A2780 [13] = assay: Induction of apoptosis in human A2780 cells assessed as viable cells at 9 uM measured after 48 hrs by Annexin V-FITC/PI staining based FACS analysis (reference value: 92.6 to 92.8%); format: functional; settings: read-out: Activity
A2780 [14] = assay: Induction of apoptosis in human A2780 cells assessed as viable cells at 3 uM measured after 48 hrs by Annexin V-FITC/PI staining based FACS analysis (reference value: 92.6 to 92.8%); format: functional; settings: read-out: Activity
A2780 [15] = assay: Induction of apoptosis in human A2780 cells assessed as necrotic cells at 9 uM measured after 48 hrs by Annexin V-FITC/PI staining based FACS analysis (reference value: 1.34 to 3.3%); format: functional
Salmonella typhi [16] = assay: Antibacterial activity against Salmonella typhi at 25 ug/ml measured after 20 to 45 mins by broth microdilution method; format: functional, organism-based; settings: Salmonella enterica subsp. enterica serovar Typhi; dose 25.0 µg/ml, time 20-45 min
A2780 [17] = assay: Induction of apoptosis in human A2780 cells assessed as increase in late apoptotic cells measured after 48 hrs by Annexin V-FITC/PI staining based FACS analysis; format: functional, cell-based; settings: dose 1-9 µM
A2780 [18] = assay: Induction of apoptosis in human A2780 cells assessed as late apoptotic cells at 9 uM measured after 48 hrs by Annexin V-FITC/PI staining based FACS analysis (reference value: 2.32 to 2.4%); format: functional
Vibrio parahaemolyticus [19] = assay: Antibacterial activity against Vibrio parahaemolyticus at 25 ug/ml measured after 20 to 45 mins by broth microdilution method; format: functional, organism-based; settings: dose 25.0 µg/ml, time 20-45 min
Escherichia coli [20] = assay: Antibacterial activity against Escherichia coli at 25 ug/ml measured after 20 to 45 mins by broth microdilution method; format: functional, organism-based; settings: dose 25.0 µg/ml, time 20-45 min
A2780 [21] = assay: Induction of apoptosis in human A2780 cells assessed as chromatin fragmentation at 1 to 9 uM measured after 48 hrs by Hoechst 33258 staining based assay; format: functional, cell-based; settings: dose 1-9 µM
A2780 [22] = assay: Induction of apoptosis in human A2780 cells assessed as chromatin condensation at 1 to 9 uM measured after 48 hrs by Hoechst 33258 staining based assay; format: functional, cell-based; settings: dose 1-9 µM
Staphylococcus aureus [23] = assay: Antibacterial activity against Staphylococcus aureus at 25 ug/ml measured after 20 to 45 mins by broth microdilution method; format: functional, organism-based; settings: dose 25.0 µg/ml, time 20-45 min
A2780 [24] = assay: Induction of apoptosis in human A2780 cells assessed as necrotic cells at 3 uM measured after 48 hrs by Annexin V-FITC/PI staining based FACS analysis (reference value: 1.34 to 3.3%); format: functional
A2780 [25] = assay: Induction of apoptosis in human A2780 cells assessed as late apoptotic cells at 3 uM measured after 48 hrs by Annexin V-FITC/PI staining based FACS analysis (reference value: 2.32 to 2.4%); format: functional

## C[C@H]1CCC(=O)CCC(=O)c2c(O)cc(O)cc2CC(=O)O1
HeLa
  IC50: > 20 µM
Vibrio parahaemolyticus [1]
  MIC: > 25 µg/mL
Shigella dysenteriae
  MIC: > 25 µg/mL
SK-OV-3
  IC50: > 20 µM
Escherichia coli [2]
  MIC: > 25 µg/mL
Staphylococcus aureus [3]
  MIC: > 25 µg/mL
Bacillus subtilis
  MIC: > 25 µg/mL
Salmonella typhi [4]
  MIC: > 25 µg/mL
Enterococcus faecalis
  MIC: > 25 µg/mL
A2780 [5]
  IC50: > 20 µM
HepG2
  IC50: > 20 µM

## CC1=C[C@@H]2/C=C(\C)CCC(=O)[C@@H](O)/C=C/C(=O)[C@]23C(=O)N[C@@H](CC(C)C)[C@@H]3[C@@H]1C
HeLa
  IC50: > 20 µM
Vibrio parahaemolyticus [1]
  MIC: > 25 µg/mL
Shigella dysenteriae
  MIC: > 25 µg/mL
SK-OV-3
  IC50: > 20 µM
Escherichia coli [2]
  MIC: > 25 µg/mL
Staphylococcus aureus [3]
  MIC: > 25 µg/mL
Bacillus subtilis
  MIC: > 25 µg/mL
Salmonella typhi [4]
  MIC: > 25 µg/mL
Enterococcus faecalis
  MIC: > 25 µg/mL
A2780 [5]
  IC50: > 20 µM
HepG2
  IC50: > 20 µM

## CC1=C[C@@H]2/C=C(\C)CC[C@H](O)[C@H](O)/C=C/C(=O)O[C@]23C(=O)N[C@@H](CC(C)C)[C@@H]3[C@@H]1C [ASPOCHALASIN I]
HeLa
  IC50: > 20 µM
Vibrio parahaemolyticus [1]
  MIC: > 25 µg/mL
Shigella dysenteriae
  MIC: > 25 µg/mL
SK-OV-3
  IC50: > 20 µM
Escherichia coli [2]
  MIC: > 25 µg/mL
Staphylococcus aureus [3]
  MIC: > 25 µg/mL
Bacillus subtilis
  MIC: > 25 µg/mL
Salmonella typhi [4]
  MIC: > 25 µg/mL
Enterococcus faecalis
  MIC: > 25 µg/mL
A2780 [5]
  IC50: > 20 µM
HepG2
  IC50: > 20 µM

## CC1=C[C@@H]2/C=C(\C)CC[C@@H](O)C(=O)C[C@@H](S[C@@H]3CCC[C@H](C)OC(=O)Cc4cc(O)cc(O)c4C(=O)C3)C(=O)[C@]23C(=O)N[C@@H](CC(C)C)[C@@H]3[C@@H]1C
HeLa
  IC50: 10 µM
A2780 [6]
  Activity: Dose-Dependent Effect
A2780 [7]
  Activity: 56.8%
A2780 [8]
  Activity: 4.85%
A2780 [9]
  Activity: 1.71%
A2780 [10]
  Activity: 2.91%
A2780 [11]
  Activity: 1.35%
A2780 [12]
  viability at 1 µM: 94%
A2780 [13]
  viability at 9 µM: 27.1%
Shigella dysenteriae
  MIC: 13 µg/mL (≈ 18 µM)
A2780 [14]
  viability at 3 µM: 90.9%
A2780 [15]
  Activity: 1.19%
SK-OV-3
  IC50: 13 µM
Salmonella typhi [16]
  Activity: inactive
A2780 [17]
  Activity: Dose-Dependent Effect
A2780 [18]
  Activity: 14.9%
Vibrio parahaemolyticus [19]
  Activity: inactive
Escherichia coli [20]
  Activity: inactive
Bacillus subtilis
  MIC: 6.3 µg/mL (≈ 8.7 µM)
A2780 [21]
  Activity: Active
Enterococcus faecalis
  MIC: 3.1 µg/mL (≈ 4.28 µM)
A2780 [5]
  IC50: 3.9 µM
A2780 [22]
  Activity: Active
Staphylococcus aureus [23]
  Activity: inactive
A2780 [24]
  Activity: 1.38%
HepG2
  IC50: 15 µM
A2780 [25]
  Activity: 2.87%

## C[C@H]1CC/C=C\CC(=O)c2c(O)cc(O)cc2CC(=O)O1
HeLa
  IC50: > 20 µM
Vibrio parahaemolyticus [1]
  MIC: > 25 µg/mL
Shigella dysenteriae
  MIC: > 25 µg/mL
SK-OV-3
  IC50: > 20 µM
Escherichia coli [2]
  MIC: > 25 µg/mL
Staphylococcus aureus [3]
  MIC: > 25 µg/mL
Bacillus subtilis
  MIC: > 25 µg/mL
Salmonella typhi [4]
  MIC: > 25 µg/mL
Enterococcus faecalis
  MIC: > 25 µg/mL
A2780 [5]
  IC50: > 20 µM
HepG2
  IC50: > 20 µM

## CO[C@H]1CCC[C@H](C)OC(=O)Cc2cc(O)cc(O)c2C(=O)C1 [11ALPHA-METHOXYCURVULARIN]
HeLa
  IC50: > 20 µM
Vibrio parahaemolyticus [1]
  MIC: > 25 µg/mL
Shigella dysenteriae
  MIC: > 25 µg/mL
SK-OV-3
  IC50: > 20 µM
Escherichia coli [2]
  MIC: > 25 µg/mL
Staphylococcus aureus [3]
  MIC: > 25 µg/mL
Bacillus subtilis
  MIC: > 25 µg/mL
Salmonella typhi [4]
  MIC: > 25 µg/mL
Enterococcus faecalis
  MIC: > 25 µg/mL
A2780 [5]
  IC50: > 20 µM
HepG2
  IC50: > 20 µM

## CC1=C[C@@H]2/C=C(\C)CC[C@@H](O)[C@@H](O)[C@H](O)CC(=O)[C@]23C(=O)N[C@@H](CC(C)C)[C@@H]3[C@@H]1C
HeLa
  IC50: > 20 µM
Vibrio parahaemolyticus [1]
  MIC: > 25 µg/mL
Shigella dysenteriae
  MIC: > 25 µg/mL
SK-OV-3
  IC50: > 20 µM
Escherichia coli [2]
  MIC: > 25 µg/mL
Staphylococcus aureus [3]
  MIC: > 25 µg/mL
Bacillus subtilis
  MIC: > 25 µg/mL
Salmonella typhi [4]
  MIC: > 25 µg/mL
Enterococcus faecalis
  MIC: > 25 µg/mL
A2780 [5]
  IC50: > 20 µM
HepG2
  IC50: > 20 µM

## C[C@H]1CCC/C=C/C(=O)c2c(O)cc(O)cc2CC(=O)O1 [DEHYDROCURVULARIN]
HeLa
  IC50: 7.9 µM
A2780 [6]
  Activity: Dose-Dependent Effect
A2780 [7]
  Activity: 51.6%
Vibrio parahaemolyticus [1]
  MIC: 25 µg/mL (≈ 86.1 µM)
A2780 [8]
  Activity: 11.1%
A2780 [9]
  Activity: 1.87%
A2780 [10]
  Activity: 1.68%
A2780 [11]
  Activity: 2.2%
A2780 [12]
  viability at 1 µM: 94.2%
A2780 [13]
  viability at 9 µM: 34.1%
Shigella dysenteriae
  MIC: 6.3 µg/mL (≈ 21.7 µM)
A2780 [14]
  viability at 3 µM: 80.8%
A2780 [15]
  Activity: 2.11%
SK-OV-3
  IC50: 20 µM
Salmonella typhi [16]
  Activity: inactive
A2780 [17]
  Activity: Dose-Dependent Effect
Escherichia coli [2]
  MIC: 25 µg/mL (≈ 86.1 µM)
A2780 [18]
  Activity: 12.2%
Bacillus subtilis
  MIC: 3.1 µg/mL (≈ 10.7 µM)
A2780 [21]
  Activity: Active
Enterococcus faecalis
  MIC: 13 µg/mL (≈ 44.8 µM)
A2780 [5]
  IC50: 4.3 µM
A2780 [22]
  Activity: Active
Staphylococcus aureus [23]
  Activity: inactive
A2780 [24]
  Activity: 2.09%
HepG2
  IC50: 12 µM
A2780 [25]
  Activity: 5.07%

## O=C(O)c1cn(C2CC2)c2cc(N3CCNCC3)c(F)cc2c1=O [CIPROFLOXACIN]
Vibrio parahaemolyticus [1]
  MIC: 3.1 µg/mL (≈ 9.36 µM)
Shigella dysenteriae
  MIC: 1.6 µg/mL (≈ 4.83 µM)
Escherichia coli [2]
  MIC: 1.6 µg/mL (≈ 4.83 µM)
Staphylococcus aureus [3]
  MIC: 1.6 µg/mL (≈ 4.83 µM)
Bacillus subtilis
  MIC: 1.6 µg/mL (≈ 4.83 µM)
Salmonella typhi [4]
  MIC: 1.6 µg/mL (≈ 4.83 µM)
Enterococcus faecalis
  MIC: 1.6 µg/mL (≈ 4.83 µM)
